Measured values from patent US10821100B2, “Triazolone compounds as mPGES-1 inhibitors” (Glenmark Pharmaceuticals S.A., priority 2012, dated 2020).
pIC50: −log10 of the molar value.

Target: T1, Recombinant human mPGES-1 (Homo sapiens, UniProt O14684)
T1 construct: made in house; host or cells: CHO cells (crude microsomal fractions)
T1 sequence (O14684 1-152): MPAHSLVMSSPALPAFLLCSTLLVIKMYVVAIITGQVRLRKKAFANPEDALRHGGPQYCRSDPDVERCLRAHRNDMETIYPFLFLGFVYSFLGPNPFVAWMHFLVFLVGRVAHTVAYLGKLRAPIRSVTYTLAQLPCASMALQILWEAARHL
Experiment: In-vitro screening of mPGES-1 inhibitors (inhibition of PGE2 formation from PGH2, HTRF detection)
Type: biochemical
Details: mPGES-1 enzyme; for inhibition at 1 µM: 1 μM test compound, read-out: Percentage inhibition at 1 μM; for inhibition at 1 µM / inhibition at 10 µM: crude microsomal fractions; for inhibition at 10 µM: 10 μM test compound, read-out: Percentage inhibition at 10 μM; for pIC50: class symbols
Method in brief: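 PGH2-to-PGE2 isomerization run for 1 min with 15 μM PGH2 after 10 min compound preincubation with microsomal enzyme (40–60 μg/mL) and 2.5 mM GSH, pH buffer 0.1 M potassium phosphate with EDTA. Stannous chloride quench, HTRF PGE2 readout, IC50 fitted against uninhibited reaction.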

SMILES | inhibition at 1 µM [%] | inhibition at 10 µM [%] | pIC50
CC(C)(C)C(=O)NCc1ccc(Cl)c(-c2nn(-c3ccc(Cl)c(C(F)(F)F)c3)c(=O)[nH]2)c1F [Example-174, N-(4-Chloro-3-(1-(4-chloro-3-(trifluoromethyl)phenyl)-4,5-dihydro-5-oxo-1H-1,2,4-triazol-3-yl)-2-fluorobenzyl)pivalamide] | 99.9 | 100 | > 7.30
CC(C)(CF)C(=O)NCc1ccc(Cl)c(-c2nn(-c3ccc(C(F)(F)F)cc3)c(=O)[nH]2)c1 [Example-175, N-(4-Chloro-3-(1-(4-(trifluoromethyl)phenyl)-4,5-dihydro-5-oxo-1H-1,2,4-triazol-3-yl)benzyl)-3-fluoro-2,2-dimethylpropanamide] | 99.4 | 99.4 | > 7.30
COc1cc(-c2nn(-c3c(Cl)cccc3Cl)c(=O)[nH]2)ccc1NC(=O)c1ccc(C(F)(F)F)cc1 [Example-176, N-(4-(1-(2,6-Dichlorophenyl)-4,5-dihydro-5-oxo-1H-1,2,4-triazol-3-yl)-2-methoxyphenyl)-4-(trifluoromethyl)benzamide] | 45.8 | 89.5 | –
COc1cc(-c2nn(-c3c(Cl)cccc3Cl)c(=O)[nH]2)ccc1NC(=O)c1cc(F)cc(F)c1 [Example-177, N-(4-(1-(2,6-Dichlorophenyl)-4,5-dihydro-5-oxo-1H-1,2,4-triazol-3-yl)-2-methoxyphenyl)-3,5-difluorobenzamide] | 29.9 | 71.1 | –
COc1cc(-c2nn(-c3c(Cl)cccc3Cl)c(=O)[nH]2)ccc1C(=O)Nc1cc(C(F)(F)F)ccc1F [Example-178, 4-(1-(2,6-Dichlorophenyl)-4,5-dihydro-5-oxo-1H-1,2,4-triazol-3-yl)-N-(2-fluoro-5-(trifluoromethyl)phenyl)-2-methoxybenzamide] | 42.7 | 91.5 | –
COc1cc(-c2nn(-c3c(Cl)cccc3Cl)c(=O)[nH]2)ccc1C(=O)Nc1ccc(C)cc1Cl [Example-179, N-(2-Chloro-4-methylphenyl)-4-(1-(2,6-dichlorophenyl)-4,5-dihydro-5-oxo-1H-1,2,4-triazol-3-yl)-2-methoxybenzamide] | 50.6 | 95.2 | –
CC(C)(C)C(=O)NCc1cnc(C2CC2)c(-c2nn(-c3ccc(C(F)(F)F)cc3)c(=O)[nH]2)c1 [Example-180, N-((6-Cyclopropyl-5-(1-(4-(trifluoromethyl)phenyl)-4,5-dihydro-5-oxo-1H-1,2,4-triazol-3-yl)pyridin-3-yl)methyl)pivalamide] | 72.3 | 92.5 | < 7.00
CC(C)(C)C(=O)NCc1ccc(Cl)c(-c2nn(-c3ccc(C#CC4CC4)cc3F)c(=O)[nH]2)c1 [Example-181, N-(4-Chloro-3-(1-(4-(2-cyclopropylethynyl)-2-fluorophenyl)-4,5-dihydro-5-oxo-1H-1,2,4-triazol-3-yl)benzyl)pivalamide] | 88.2 | 94.3 | > 7.30
CC(C)(C)S(=O)(=O)NCc1ccc(Cl)c(-c2nn(-c3ccc(C(F)(F)F)cc3)c(=O)[nH]2)c1 [Example-182, N-(4-Chloro-3-(5-oxo-1-(4-(trifluoromethyl)phenyl)-4,5-dihydro-1H-1,2,4-triazol-3-yl)benzyl)-2-methylpropane-2-sulfonamide] | 92.9 | 94 | > 7.30
N#Cc1cnc(C(F)F)c(-c2nn(-c3ccc(C(F)(F)F)cc3)c(=O)[nH]2)c1 [Example-183, 6-(Difluoromethyl)-5-(5-oxo-1-(4-(trifluoromethyl)phenyl)-4,5-dihydro-1H-1,2,4-triazol-3-yl)nicotinonitrile] | 41.5 | 85.5 | –
O=C(NCc1ccc(Cl)c(-c2nn(-c3ccc(C(F)(F)F)cc3)c(=O)[nH]2)c1)C1CCC1 [Example-184, N-(4-Chloro-3-(5-oxo-1-(4-(trifluoromethyl)phenyl)-4,5-dihydro-1H-1,2,4-triazol-3-yl)benzyl)cyclobutanecarboxamide] | 98.6 | 94.3 | > 7.30
O=C(NCc1ccc(Cl)c(-c2nn(-c3ccc(C(F)(F)F)cc3)c(=O)[nH]2)c1)C1CCCC1 [Example-185, N-(4-Chloro-3-(5-oxo-1-(4-(trifluoromethyl)phenyl)-4,5-dihydro-1H-1,2,4-triazol-3-yl)benzyl)cyclopentanecarboxamide] | 96.1 | 98.3 | > 7.30
CC(C)(C)C(=O)NCc1cnc(C(F)F)c(-c2nn(-c3ccc(C(F)(F)F)cc3)c(=O)[nH]2)c1 [Example-186] | 96.8 | 98 | > 7.30
CC(C)C(=O)NCc1cnc(C(F)F)c(-c2nn(-c3ccc(C(F)(F)F)cc3)c(=O)[nH]2)c1 [Example-187, N-((6-(Difluoromethyl)-5-(5-oxo-1-(4-(trifluoromethyl)phenyl)-4,5-dihydro-1H-1,2,4-triazol-3-yl)pyridin-3-yl)methyl)isobutyramide] | 98.6 | 97.5 | > 7.30
CC(C)S(=O)(=O)NCc1cnc(C(F)F)c(-c2nn(-c3ccc(C(F)(F)F)cc3)c(=O)[nH]2)c1 [Example-188, N-((6-(Difluoromethyl)-5-(5-oxo-1-(4-(trifluoromethyl)phenyl)-4,5-dihydro-1H-1,2,4-triazol-3-yl)pyridin-3-yl)methyl)propane-2-sulfonamide] | 89.5 | 99.3 | 7.00 to 7.30
O=C(NCc1cnc(C(F)F)c(-c2nn(-c3ccc(C(F)(F)F)cc3)c(=O)[nH]2)c1)C1CCC1 [Example-189, N-((6-(Difluoromethyl)-5-(5-oxo-1-(4-(trifluoromethyl)phenyl)-4,5-dihydro-1H-1,2,4-triazol-3-yl)pyridin-3-yl)methyl)cyclobutanecarboxamide] | 96.2 | 98.5 | > 7.30
O=C(NCc1ccc(Cl)c(-n2nc(-c3ccc(C#CC4CC4)cc3)[nH]c2=O)c1)C(F)(F)F [Example-190, N-(4-Chloro-3-(3-(4-(cyclopropylethynyl)phenyl)-5-oxo-4,5-dihydro-1H-1,2,4-triazol-1-yl)benzyl)-2,2,2-trifluoroacetamide] | 100 | 100 | > 7.30
CC(C)(CO)C(=O)NCc1ccc(Cl)c(-n2nc(-c3ccc(C#CC4CC4)cc3)[nH]c2=O)c1 [Example-191, N-(4-Chloro-3-(3-(4-(cyclopropylethynyl)phenyl)-5-oxo-4,5-dihydro-1H-1,2,4-triazol-1-yl)benzyl)-3-hydroxy-2,2-dimethylpropanamide] | 93.5 | 100 | < 7.00
CC(C)(CF)C(=O)NCc1cnc(C(F)F)c(-c2nn(-c3ccc(C(F)(F)F)cc3)c(=O)[nH]2)c1 [Example-192, 3-Fluoro-N-((6-(difluoromethyl)-5-(1-(4-(trifluoromethyl)phenyl)-4,5-dihydro-5-oxo-1H-1,2,4-triazol-3-yl)pyridin-3-yl)methyl)-2,2-dimethylpropanamide] | 99.3 | 99.3 | > 7.30
